Where two headings read alike, the source gives them in different places.
How the values were obtained:
[1] = tested on: Staphulococcus aureus (ATCC 29213); assay: Minimum inhibitory concentration (MIC) assay, Example 33; assay type: cell-based, Staphylococcus aureus; details: Staphylococcus aureus
Method in brief: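 Broth microdilution per CLSI guidelines in CAMHB, with 2-fold serial compound dilutions. Inoculum was set to a 0.5 McFarland standard, diluted 1:100 to twice the test density, then mixed 1:2 with drug. Plates were incubated at 35° C and the MIC read per CLSI.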

[2] = tested on: Aspergillus niger (CMCC 98003); assay: Time kill study, Example 33 (0 to 5 min); assay type: cell-based; details: 1×MIC
Method: Thirty compounds were tested for antimicrobial activity using standard procedures and standard strains for both the minimum inhibitory concentration (MIC) assay and a time kill study. Both the MIC assay and the time kill study were performed according to Clinical and Laboratory Standards Institute (CLSI) guidelines. Three bacteria strains, Escherichia coli (ATCC 25922), Pseudomonas aeruginosa (ATCC 27853), Staphulococcus aureus (ATCC 29213), and two fungus strains, Candida albicans (ATCC 90029) and Aspergillus niger (CMCC 98003), were used in the experiments.
The viable counts in Log10 CFU/mL at each time point were recorded.
(§1) Time kill studies. Strain suspensions were prepared as described above for the MIC test, and strain suspensions and compound solutions were mixed in the same volume. Samples were removed at specified times including 0 min, 30 sec, 1 min and 5 mins, were diluted in the test medium and streaked on agar. Colonies were counted after 24 to 48 hrs of incubation.
The MIC values for thirty compounds against Escherichia coli, Pseudomonas aeruginosa, Staphulococcus aureus, Candida albicans, and Aspergillus niger were recorded and are presented in Table 3 and Table 4.

Aspergillus niger = assay: Extended time kill study, Example 34 (0 to 24 h); assay type: cell-based
Method: as §1
(§2) The time kill studies of Example 33 were extended for five compounds (Nex-59, Nex-60, Nex-61, Nex-62, and Nex-88) using the same methods at longer time periods and at higher multiples of MIC. Nex-88 is a code number for DDAIP.HCl from a different supplier.

Candida albicans = assay: Extended time kill study, Example 34 (0 to 24 h); assay type: cell-based
Method: as §1, §2

Pseudomonas aeruginosa = assay: Extended time kill study, Example 34 (0 to 24 h); assay type: cell-based
Method: as §1, §2

## CCCCCCCCCCCCOC(=O)C(C)NC.Cl (centres unmarked) [Nex-59, Dodecyl 2-(methylamino)propanoate hydrochloride]
[1]; ATCC29213, Table 19 summary, read-out: MIC
  MIC: 50 µg/mL
[1]; ATCC29213, n = 1, read-out: MIC S. aureus
  MIC: 50 µg/mL
[1]; ATCC29213, n = 2, read-out: MIC S. aureus
  MIC: 50 µg/mL
[2]; 0.5 min
  Viable counts, Aspergillus niger time kill study: 5.30 Log10 CFU/mL
[2]; 1 min
  Viable counts, Aspergillus niger time kill study: 5.33 Log10 CFU/mL
[2]; 5 min
  Viable counts, Aspergillus niger time kill study: 5.18 Log10 CFU/mL
[2]; time 0
  Viable counts, Aspergillus niger time kill study: 5.27 Log10 CFU/mL
Aspergillus niger; 1 × MIC, 1 h
  Viable counts in Log10 CFU/mL: 5.34 Log10 CFU/mL
Aspergillus niger; 1 × MIC, 2 h
  Viable counts in Log10 CFU/mL: 5.48 Log10 CFU/mL
Aspergillus niger; 1 × MIC, 4 h
  Viable counts in Log10 CFU/mL: 5.08 Log10 CFU/mL
Aspergillus niger; 1 × MIC, 6 h
  Viable counts in Log10 CFU/mL: 5.30 Log10 CFU/mL
Aspergillus niger; 1 × MIC, 24 h
  Viable counts in Log10 CFU/mL: 3.78 Log10 CFU/mL
Aspergillus niger; 1 × MIC, 0 h
  Viable counts in Log10 CFU/mL: 5.41 Log10 CFU/mL
Aspergillus niger; 2 × MIC, 1 h
  Viable counts in Log10 CFU/mL: 5.11 Log10 CFU/mL
Aspergillus niger; 2 × MIC, 2 h
  Viable counts in Log10 CFU/mL: 4.70 Log10 CFU/mL
Aspergillus niger; 2 × MIC, 4 h
  Viable counts in Log10 CFU/mL: 4.48 Log10 CFU/mL
Aspergillus niger; 2 × MIC, 6 h
  Viable counts in Log10 CFU/mL: 3.95 Log10 CFU/mL
Aspergillus niger; 2 × MIC, 24 h
  Viable counts in Log10 CFU/mL: <2 Log10 CFU/mL
Aspergillus niger; 2 × MIC, 0 h
  Viable counts in Log10 CFU/mL: 5.36 Log10 CFU/mL
Aspergillus niger; 4 × MIC, 1 h
  Viable counts in Log10 CFU/mL: 5.08 Log10 CFU/mL
Aspergillus niger; 4 × MIC, 2 h
  Viable counts in Log10 CFU/mL: 4.48 Log10 CFU/mL
Aspergillus niger; 4 × MIC, 4 h
  Viable counts in Log10 CFU/mL: 3.85 Log10 CFU/mL
Aspergillus niger; 4 × MIC, 6 h
  Viable counts in Log10 CFU/mL: 4.04 Log10 CFU/mL
Aspergillus niger; 4 × MIC, 24 h
  Viable counts in Log10 CFU/mL: <2 Log10 CFU/mL
Aspergillus niger; 4 × MIC, 0 h
  Viable counts in Log10 CFU/mL: 5.29 Log10 CFU/mL
Candida albicans; 1 × MIC, 1 h
  Viable counts in Log10 CFU/mL: 5.41 Log10 CFU/mL
Candida albicans; 1 × MIC, 2 h
  Viable counts in Log10 CFU/mL: 5.24 Log10 CFU/mL
Candida albicans; 1 × MIC, 4 h
  Viable counts in Log10 CFU/mL: 4.96 Log10 CFU/mL
Candida albicans; 1 × MIC, 6 h
  Viable counts in Log10 CFU/mL: 4.40 Log10 CFU/mL
Candida albicans; 1 × MIC, 24 h
  Viable counts in Log10 CFU/mL: >6 Log10 CFU/mL
Candida albicans; 1 × MIC, 0 h
  Viable counts in Log10 CFU/mL: 5.68 Log10 CFU/mL
Candida albicans; 2 × MIC, 1 h
  Viable counts in Log10 CFU/mL: 3.48 Log10 CFU/mL
Candida albicans; 2 × MIC, 2 h
  Viable counts in Log10 CFU/mL: 3.00 Log10 CFU/mL
Candida albicans; 2 × MIC, 4 h
  Viable counts in Log10 CFU/mL: 3.00 Log10 CFU/mL
Candida albicans; 2 × MIC, 6 h
  Viable counts in Log10 CFU/mL: <2.70 Log10 CFU/mL
Candida albicans; 2 × MIC, 24 h
  Viable counts in Log10 CFU/mL: <1 Log10 CFU/mL
Candida albicans; 2 × MIC, 0 h
  Viable counts in Log10 CFU/mL: 5.75 Log10 CFU/mL
Candida albicans; 4 × MIC, 1 h
  Viable counts in Log10 CFU/mL: <3 Log10 CFU/mL
Candida albicans; 4 × MIC, 2 h
  Viable counts in Log10 CFU/mL: <3 Log10 CFU/mL
Candida albicans; 4 × MIC, 4 h
  Viable counts in Log10 CFU/mL: <2.70 Log10 CFU/mL
Candida albicans; 4 × MIC, 6 h
  Viable counts in Log10 CFU/mL: <2.70 Log10 CFU/mL
Candida albicans; 4 × MIC, 24 h
  Viable counts in Log10 CFU/mL: <1 Log10 CFU/mL
Candida albicans; 4 × MIC, 0 h
  Viable counts in Log10 CFU/mL: 5.63 Log10 CFU/mL
Pseudomonas aeruginosa; 1 × MIC, 1 h
  Viable counts, Pseudomonas aeruginosa time kill study: <1 Log10 CFU/mL
Pseudomonas aeruginosa; 1 × MIC, 2 h
  Viable counts, Pseudomonas aeruginosa time kill study: <1 Log10 CFU/mL
Pseudomonas aeruginosa; 1 × MIC, 4 h
  Viable counts, Pseudomonas aeruginosa time kill study: <1 Log10 CFU/mL
Pseudomonas aeruginosa; 1 × MIC, 6 h
  Viable counts, Pseudomonas aeruginosa time kill study: <1 Log10 CFU/mL
Pseudomonas aeruginosa; 1 × MIC, 24 h
  Viable counts, Pseudomonas aeruginosa time kill study: <1 Log10 CFU/mL
Pseudomonas aeruginosa; 1×MIC, time 0
  Viable counts, Pseudomonas aeruginosa time kill study: 5.18 Log10 CFU/mL
Pseudomonas aeruginosa; 2 × MIC, 1 h
  Viable counts, Pseudomonas aeruginosa time kill study: <1 Log10 CFU/mL
Pseudomonas aeruginosa; 2 × MIC, 2 h
  Viable counts, Pseudomonas aeruginosa time kill study: <1 Log10 CFU/mL
Pseudomonas aeruginosa; 2 × MIC, 4 h
  Viable counts, Pseudomonas aeruginosa time kill study: <1 Log10 CFU/mL
Pseudomonas aeruginosa; 2 × MIC, 6 h
  Viable counts, Pseudomonas aeruginosa time kill study: <1 Log10 CFU/mL
Pseudomonas aeruginosa; 2 × MIC, 24 h
  Viable counts, Pseudomonas aeruginosa time kill study: <1 Log10 CFU/mL
Pseudomonas aeruginosa; 2 × MIC, time 0
  Viable counts, Pseudomonas aeruginosa time kill study: 5.16 Log10 CFU/mL
Pseudomonas aeruginosa; 4 × MIC, 1 h
  Viable counts, Pseudomonas aeruginosa time kill study: <1 Log10 CFU/mL
Pseudomonas aeruginosa; 4 × MIC, 2 h
  Viable counts, Pseudomonas aeruginosa time kill study: <1 Log10 CFU/mL
Pseudomonas aeruginosa; 4 × MIC, 4 h
  Viable counts, Pseudomonas aeruginosa time kill study: <1 Log10 CFU/mL
Pseudomonas aeruginosa; 4 × MIC, 6 h
  Viable counts, Pseudomonas aeruginosa time kill study: <1 Log10 CFU/mL
Pseudomonas aeruginosa; 4 × MIC, 24 h
  Viable counts, Pseudomonas aeruginosa time kill study: <1 Log10 CFU/mL
Pseudomonas aeruginosa; 4 × MIC, time 0
  Viable counts, Pseudomonas aeruginosa time kill study: 5.21 Log10 CFU/mL
other
  melting point: 78 to 83 °C
